Data: ChEMBL document CHEMBL4699583 (J Med Chem, 2020)

Columns and labels:
[1] = molecular target: DNA topoisomerase 2-alpha (Homo sapiens, UniProt P11388); assay: Inhibition of recombinant human topoisomerase 2alpha using supercoiled pBR322 DNA as substrate incubated for 60 mins by ethidium bromide dye based agarose gel electrophoresis method
[2] = Kinetic solubility of compound in PBS at pH 7.4 incubated for 24 hrs under shaking condition by UPLC-MS analysis; assay type: physicochemical; conditions: for Kinetic_solubility: buffer, pH 7.4, 24 h
in vitro = conditions: mouse, liver microsomes

Chain of DNA topoisomerase 2-alpha (P11388 whole entry): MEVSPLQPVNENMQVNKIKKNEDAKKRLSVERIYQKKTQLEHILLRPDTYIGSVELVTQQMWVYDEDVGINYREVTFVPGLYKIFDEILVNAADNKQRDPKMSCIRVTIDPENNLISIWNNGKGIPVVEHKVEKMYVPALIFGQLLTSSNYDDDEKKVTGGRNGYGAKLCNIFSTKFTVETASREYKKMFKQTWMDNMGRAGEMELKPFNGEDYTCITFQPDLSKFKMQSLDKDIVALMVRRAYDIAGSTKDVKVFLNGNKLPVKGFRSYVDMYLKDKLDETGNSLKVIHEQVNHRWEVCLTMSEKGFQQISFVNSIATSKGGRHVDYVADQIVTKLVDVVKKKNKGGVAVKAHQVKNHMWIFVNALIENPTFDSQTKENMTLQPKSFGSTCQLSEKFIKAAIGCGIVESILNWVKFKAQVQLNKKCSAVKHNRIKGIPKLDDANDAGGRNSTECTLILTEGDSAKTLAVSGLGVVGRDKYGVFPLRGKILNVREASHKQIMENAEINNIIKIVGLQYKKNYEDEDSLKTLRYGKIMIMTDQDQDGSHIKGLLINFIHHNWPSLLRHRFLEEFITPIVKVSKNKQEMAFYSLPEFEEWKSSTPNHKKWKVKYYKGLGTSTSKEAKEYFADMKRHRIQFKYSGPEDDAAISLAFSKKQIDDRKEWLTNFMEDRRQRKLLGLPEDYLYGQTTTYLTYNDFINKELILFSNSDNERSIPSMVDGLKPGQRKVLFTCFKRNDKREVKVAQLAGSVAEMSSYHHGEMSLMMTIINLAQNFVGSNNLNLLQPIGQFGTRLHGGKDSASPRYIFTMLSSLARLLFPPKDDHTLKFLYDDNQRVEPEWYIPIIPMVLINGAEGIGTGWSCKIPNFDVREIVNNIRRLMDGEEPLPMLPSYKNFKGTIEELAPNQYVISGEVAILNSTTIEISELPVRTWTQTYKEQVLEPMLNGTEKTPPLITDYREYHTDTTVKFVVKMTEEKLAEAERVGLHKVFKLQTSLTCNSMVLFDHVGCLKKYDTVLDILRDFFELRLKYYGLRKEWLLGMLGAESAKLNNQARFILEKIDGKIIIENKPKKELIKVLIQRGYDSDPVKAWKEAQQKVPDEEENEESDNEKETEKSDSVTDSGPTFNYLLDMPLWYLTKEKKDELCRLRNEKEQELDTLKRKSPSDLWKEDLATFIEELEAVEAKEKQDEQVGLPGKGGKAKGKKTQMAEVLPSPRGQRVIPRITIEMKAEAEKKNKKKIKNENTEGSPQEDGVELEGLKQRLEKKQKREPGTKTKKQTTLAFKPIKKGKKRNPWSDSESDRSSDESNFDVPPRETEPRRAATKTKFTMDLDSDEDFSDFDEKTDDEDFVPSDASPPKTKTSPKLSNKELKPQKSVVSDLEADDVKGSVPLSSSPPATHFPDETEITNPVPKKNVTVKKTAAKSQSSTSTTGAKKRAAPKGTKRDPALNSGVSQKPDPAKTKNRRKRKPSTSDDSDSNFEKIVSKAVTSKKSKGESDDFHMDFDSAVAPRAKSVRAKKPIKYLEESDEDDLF

| SMILES | IC50 [1] | also measured |
| --- | --- | --- |
| CN(c1cccc(F)c1)c1nc(-c2ccncc2)nc2c1CC(N)CC2 (centres undefined) | Not Active | – |
| NC1CCc2nc(-c3ccncc3)nc(Nc3ccccc3)c2C1 (centres undefined) | Not Active | – |
| NC1CCc2nc(-c3ccncc3)nc(Nc3ccc(F)cc3)c2C1 (centres undefined) | – | Kinetic_solubility [2]: > 250 µM; half-life at 1 h, 4.6 µM (in vitro): > 1 h |
| Fc1cccc(Nc2nc(-c3ccncc3)nc3c2CCCC3)c1 | Not Active | – |
| COc1cccc(Nc2nc(-c3ccncc3)nc3c2CC(N)CC3)c1 (centres undefined) | – | Kinetic_solubility [2]: > 250 µM; half-life at 1 h, 4.6 µM (in vitro): > 1 h |
| NC1CCc2nc(-c3ccncc3)nc(Nc3ccccc3F)c2C1 (centres undefined) | Not Active | – |
| NC1CCc2nc(-c3ccncc3)nc(Nc3cccc(F)c3)c2C1 (racemic) | – | Kinetic_solubility [2]: 126 µM |
| NC1CCc2nc(-c3ccccn3)nc(Nc3cccc(F)c3)c2C1 (centres undefined) | Not Active | – |
| NC1CCc2nc(-c3cccnc3)nc(Nc3cccc(F)c3)c2C1 (centres undefined) | – | solubility kinetic at 24 h ([2]; PBS, pH 7.4, read-out: Kinetic_solubility): > 250 µM; half-life at 1 h, 4.6 µM (in vitro): > 1 h |
| COc1ccc(Nc2nc(-c3ccncc3)nc3c2CC(N)CC3)cc1 (centres undefined) | Not Active | – |
| CN(C)c1cccc(Nc2nc(-c3ccncc3)nc3c2CC(N)CC3)c1 (centres undefined) | Not Active | – |
